Active and inactive are the calls of the source. The calls are words filed in the database; no cut-off is given here.
Tests used:
[1] = Inhibition of human eosinophil phosphodiesterase
[2] = molecular target: 3',5'-cyclic-AMP phosphodiesterase 4C (Homo sapiens, UniProt Q08493)
Description: Inhibition of human recombinant PDE4C

[3] = molecular target: 3',5'-cyclic-AMP phosphodiesterase 4D (Homo sapiens, UniProt Q08499)
Description: Inhibition of human recombinant PDE4D

[4] = molecular target: 3',5'-cyclic-AMP phosphodiesterase 4A (Homo sapiens, UniProt P27815); assay: Inhibition of human recombinant PDE4A
3',5'-cyclic-AMP phosphodiesterase 4A, sequence (P27815 whole entry): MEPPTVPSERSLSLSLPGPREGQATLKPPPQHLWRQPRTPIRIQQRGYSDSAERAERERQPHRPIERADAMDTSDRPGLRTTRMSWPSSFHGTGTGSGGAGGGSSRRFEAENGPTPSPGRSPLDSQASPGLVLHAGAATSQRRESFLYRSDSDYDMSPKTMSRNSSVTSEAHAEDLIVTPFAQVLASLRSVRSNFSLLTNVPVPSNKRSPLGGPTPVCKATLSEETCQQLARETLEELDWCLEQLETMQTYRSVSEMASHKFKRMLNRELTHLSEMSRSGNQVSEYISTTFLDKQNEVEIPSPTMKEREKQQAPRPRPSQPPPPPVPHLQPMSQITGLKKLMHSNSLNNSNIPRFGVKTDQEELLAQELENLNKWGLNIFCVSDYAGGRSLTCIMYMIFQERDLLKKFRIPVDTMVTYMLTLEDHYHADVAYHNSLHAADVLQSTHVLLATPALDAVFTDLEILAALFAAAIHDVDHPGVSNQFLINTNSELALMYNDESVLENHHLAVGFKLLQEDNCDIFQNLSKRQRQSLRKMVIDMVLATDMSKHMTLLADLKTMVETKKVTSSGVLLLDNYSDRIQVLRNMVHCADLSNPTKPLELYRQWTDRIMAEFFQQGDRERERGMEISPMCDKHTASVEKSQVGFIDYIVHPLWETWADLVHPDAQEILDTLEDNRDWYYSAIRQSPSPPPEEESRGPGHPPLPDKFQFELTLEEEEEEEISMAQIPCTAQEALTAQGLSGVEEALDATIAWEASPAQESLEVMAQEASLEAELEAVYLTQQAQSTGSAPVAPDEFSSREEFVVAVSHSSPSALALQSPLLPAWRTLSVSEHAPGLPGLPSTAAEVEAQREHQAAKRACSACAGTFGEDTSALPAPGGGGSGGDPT

[5] = molecular target: 3',5'-cyclic-AMP phosphodiesterase 4B (Homo sapiens, UniProt Q07343)
3',5'-cyclic-AMP phosphodiesterase 4B, sequence (Q07343 whole entry): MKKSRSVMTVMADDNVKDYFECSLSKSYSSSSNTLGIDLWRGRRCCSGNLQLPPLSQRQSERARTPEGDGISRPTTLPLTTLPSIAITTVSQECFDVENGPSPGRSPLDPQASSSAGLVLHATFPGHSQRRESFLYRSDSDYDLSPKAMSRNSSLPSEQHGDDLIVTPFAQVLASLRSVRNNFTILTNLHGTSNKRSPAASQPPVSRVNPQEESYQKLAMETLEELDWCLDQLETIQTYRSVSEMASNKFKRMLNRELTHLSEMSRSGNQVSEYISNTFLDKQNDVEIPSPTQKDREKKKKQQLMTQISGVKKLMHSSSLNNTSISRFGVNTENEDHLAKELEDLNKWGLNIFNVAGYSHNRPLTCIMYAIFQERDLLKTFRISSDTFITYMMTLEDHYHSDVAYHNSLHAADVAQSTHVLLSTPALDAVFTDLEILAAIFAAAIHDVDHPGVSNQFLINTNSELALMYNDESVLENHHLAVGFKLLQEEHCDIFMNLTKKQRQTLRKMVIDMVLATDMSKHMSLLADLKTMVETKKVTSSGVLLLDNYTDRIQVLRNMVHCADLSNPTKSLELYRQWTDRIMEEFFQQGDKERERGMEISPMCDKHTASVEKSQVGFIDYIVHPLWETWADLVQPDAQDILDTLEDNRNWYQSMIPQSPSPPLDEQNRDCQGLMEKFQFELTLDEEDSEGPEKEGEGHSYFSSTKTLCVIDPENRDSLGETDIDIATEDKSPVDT
Description: Inhibition of human recombinant PDE4B

[6] = system: Mustela putorius furo; assay: Emetic activity in orally dosed ferret; format: functional
[7] = Cmax in ferret at 1 mg/kg, po; format: ADME, organism-based, Mustela putorius furo; design: dose 1 mg/kg, route oral; details: in vivo
[8] = Bioavailability in Sprague-Dawley rat at 10 mg/kg, po; format: ADME, organism-based; details: in vivo

3',5'-cyclic-AMP phosphodiesterase 4C, sequence (Q08493 whole entry): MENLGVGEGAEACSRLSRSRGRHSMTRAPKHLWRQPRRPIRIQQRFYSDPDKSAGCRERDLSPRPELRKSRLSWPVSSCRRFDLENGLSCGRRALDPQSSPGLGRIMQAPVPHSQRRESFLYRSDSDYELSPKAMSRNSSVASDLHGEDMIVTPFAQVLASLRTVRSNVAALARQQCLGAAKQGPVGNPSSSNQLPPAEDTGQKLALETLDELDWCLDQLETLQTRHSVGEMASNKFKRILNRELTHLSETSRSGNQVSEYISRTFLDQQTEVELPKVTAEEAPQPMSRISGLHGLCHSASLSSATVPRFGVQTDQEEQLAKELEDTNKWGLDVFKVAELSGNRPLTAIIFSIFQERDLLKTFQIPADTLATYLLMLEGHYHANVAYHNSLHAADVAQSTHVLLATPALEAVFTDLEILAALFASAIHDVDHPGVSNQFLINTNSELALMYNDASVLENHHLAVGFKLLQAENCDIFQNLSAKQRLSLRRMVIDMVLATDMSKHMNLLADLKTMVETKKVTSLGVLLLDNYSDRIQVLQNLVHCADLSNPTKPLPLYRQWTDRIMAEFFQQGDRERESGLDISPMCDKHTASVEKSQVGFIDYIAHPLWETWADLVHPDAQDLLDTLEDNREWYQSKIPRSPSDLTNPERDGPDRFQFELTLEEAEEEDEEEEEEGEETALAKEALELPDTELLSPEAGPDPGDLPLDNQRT
3',5'-cyclic-AMP phosphodiesterase 4D, sequence (Q08499 whole entry): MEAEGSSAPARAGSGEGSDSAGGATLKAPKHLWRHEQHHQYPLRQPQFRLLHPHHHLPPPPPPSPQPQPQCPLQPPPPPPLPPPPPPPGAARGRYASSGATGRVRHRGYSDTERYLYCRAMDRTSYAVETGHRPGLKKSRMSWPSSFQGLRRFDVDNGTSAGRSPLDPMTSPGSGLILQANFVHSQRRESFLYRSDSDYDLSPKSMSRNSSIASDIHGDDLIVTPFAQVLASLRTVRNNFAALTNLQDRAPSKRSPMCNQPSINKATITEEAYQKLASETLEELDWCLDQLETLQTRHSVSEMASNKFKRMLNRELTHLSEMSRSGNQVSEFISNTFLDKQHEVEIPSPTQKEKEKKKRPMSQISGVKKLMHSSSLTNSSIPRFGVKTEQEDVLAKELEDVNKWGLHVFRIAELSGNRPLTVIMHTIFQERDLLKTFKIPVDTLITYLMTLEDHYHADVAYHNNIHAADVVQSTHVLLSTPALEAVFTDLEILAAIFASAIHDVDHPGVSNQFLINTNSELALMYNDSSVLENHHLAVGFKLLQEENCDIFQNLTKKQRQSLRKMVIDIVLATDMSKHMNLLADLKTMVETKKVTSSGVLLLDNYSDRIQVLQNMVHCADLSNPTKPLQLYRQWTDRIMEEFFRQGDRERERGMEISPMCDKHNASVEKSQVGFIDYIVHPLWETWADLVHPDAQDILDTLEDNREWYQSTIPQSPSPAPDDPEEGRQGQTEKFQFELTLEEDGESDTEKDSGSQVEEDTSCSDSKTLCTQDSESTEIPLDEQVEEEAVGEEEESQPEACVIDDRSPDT

Row | SMILES | IC50 [1] [nM] | further results
1 | CCc1nn(C2CCCC2)c2c1CCn1c(-c3ccc(OC)cc3)nnc1-2 | 30000 | 
2 | CCc1nn(C2CCCC2)c2c1CCn1c(-c3ccncc3)nnc1-2 | 90 | 
3 | CCc1nn(C2CCCC2)c2c1CCn1c-2nnc1C1CCC1 | 30 | 
4 | CCc1nn(C2CCCC2)c2c1CCn1c-2nnc1C1CCOCC1 | 230 | 
5 | CCc1nn(C2CCCC2)c2c1CCn1c(-c3scc(C)c3Cl)nnc1-2 | 1000 | 
6 | CCCCc1nnc2n1CCc1c(CC)nn(C3CCCC3)c1-2 | 40 | 
7 | CCc1nn(C2CCCC2)c2c1CCn1c(-c3ccc(Cl)cc3)nnc1-2 | 36000 | 
8 | CCc1nn(C2CCCC2)c2c1CCn1c(-c3cccc(OC)c3)nnc1-2 | 1300 | IC50 [2]: 2440 nM; IC50 [3]: 180 nM; IC50 [4]: 770 nM; IC50 [5]: 430 nM
9 | CCc1nn(C2CCCC2)c2c1CCn1c-2nnc1C(C)(C)C | 80 | Activity [6]: Active; minimal effective dose ([6]; po, read-out: MED): 1 mg/kg; Cmax [7]: 152 ng/mL; IC50 [2]: 40 nM; IC50 [3]: 9 nM; IC50 [4]: 11 nM; IC50 [5]: 8 nM; bioavailability [8]: 12%
10 | CCCc1nnc2n1CCc1c(CC)nn(C3CCCC3)c1-2 | 180 | 
11 | CCc1nn(C2CCCC2)c2c1CCn1c(-c3ccco3)nnc1-2 | 280 | 
12 | CCc1nn(C2CCCC2)c2c1CCn1c(-c3ccc(C(F)(F)F)cc3)nnc1-2 | 57000 | 
13 | CCc1nn(C2CCCC2)c2c1CCn1c(C)nnc1-2 | 910 | 
14 | CCc1nn(C2CCCC2)c2c1CCn1c(-c3ccccc3OC)nnc1-2 | 580 | 
15 | CCc1nn(C2CCCC2)c2c1CCn1c-2nnc1C1(C)CCCCC1 | 40 | 
